From US20180105492A1, “COMPOUNDS DERIVED FROM 3-ALKYLAMINE-1H-INDOLYL ACRYLATE AND THEIR USE IN THE TREATMENT OF NEURODEGENERATIVE DISEASES” (FUNDACION PARA LA INVESTIGACION BIOMEDICA DEL HOSPITAL …, priority 2014, published 2018)

How the values were obtained:
[1] = Oxygen radical absorbance capacity (ORAC), free radical scavenger capacity; conditions: fluorescein/AAPH, pH 7.4, trolox = 1
Method: In order to study the potential antioxidant effect of the compounds of the invention, we performed an oxygen radical absorbance capacity (ORAC) experiment.
For studying the free radical scavenger capacity, we measured the degree peroxide radical inhibition. Thus, scavenger capacity is measured as trolox equivalents and includes the disappearance of free radicals over time and the decrease of oxidative damage at the end of the experiment. The protocol used is based in the protocol developed by Ou and col. (Ou y col., 2001, J Agric Food Chem, 49: 4619-26) partially modified by Dávalos and col. (Davalos y col., 2004, J Agric Food Chem, 52: 48-54). The reaction was performed in phosphate tampon 75 mM (pH 7.4), with a final volume of 200 μL. 150 μL of fluorescein (final concentration of 70 nM) with 25 μL the compound of study at the desired concentration in triplicates, using surface transparent 96 well black plates for measuring fluorescence.
The mixture was pre-incubated during 15 min at 37° C. and, afterwards, 25 μL of a solution containing 2,2′-Azobis(2-amidinopropane) dihydrochloride (AAPH) (final concentration; 12 mM) were rapidly added. Fluorescence was immediately measured using a plate reader fluostar optima, using the filters of emission and excitation of […], respectively. Fluorescence intensity was measured during 90 min. Each compound was measured at 6 different concentrations. In the assay, fluorescein+AAPH in phosphate tampon was added as a blank and a calibration curve was performed using Trolox (1-8 μM). Every variable was prepared in duplicates and at least three independent experiments were performed for each compound. The curves of the compounds (F.I.—time) were normalized respect to the curve of the blank for each experiment and area under the curve (AUC) of the decreasing in fluorescence was calculated. AUC value of each compound was calculated subtracting the AUC of the blank. Regression curves between AUC and concentration of the compound were calculated for each of the samples. ORAC values were expressed as trolox equivalents with respect to the calibration curve of each assay, where the trolox value was considered 1.

[2] = tested on: SH-SY5Y cells; assay: Toxicity in SH-SY5Y neuronal cell line, reduction of cell viability (MTT); assay type: cell-based
Method: In order to assess cellular viability, we measured the metabolic reduction of 3-(4,5-Dimethylthiazol-2-yl)-2,5 diphenyltetrazolium bromide (MTT). MTT is an indirect assay to measure cellular viability. It is a colorimetric method based on the reduction of 3-(4,5-Dimethylthiazol-2-yl)-2,5 diphenyltetrazolium. This process is performed by the mitochondrial enzyme succinate-dehydrogenase present in metabolic active cells. Thus, the water-soluble yellow MTT (tetrazolium salt) is transformed into a insoluble purple compound (formazan). Quantity of living cells is directly proportional to the quantity of formazan (Mosmann, 1983, J Immunol Methods, 65: 55-63). […] Therefore, with this assay we can measure cellular surviving and proliferation and also, we can determine the cytotoxicity of potential neuroprotective compounds. In order to assess cellular viability in SH-SY5Y cell line, we added 30 μl/well of MTT (5 mg/mL) and after 2 h, medium was carefully removed to avoid losing the formazan and was diluted in 300 μL of DMSO. Afterwards, samples were transferred to a 96 well-plate and the absorbance was measured at 570 nm using a absorbance/fluorescence reader FluoStar optima®. Every MTT assay was performed in triplicates. Absorbance values obtained with the toxic alone were subtracted to the absorbance values obtained in basal conditions (without treatment). That result was considered as the 100% of cell death and the values obtained with the compounds in the presence of the toxic stimulus were normalized as percentages of that value. For determining the surviving percentage, those percentages of cell death were subtracted to 100. […]
In order to further study its safety profile, the effect of the derivatives on neuronal cells used for neuroprotection experiments, the SH-SY5Y human neuroblastoma cells, was also evaluated. Maintenance and culture methods of this cell line have been described above. For toxicity experiments, SH-SY5Y cells were plated in 96-well plates at the density of 6×10 ^4 cells/well. The experimental conditions were the same as those described for the toxicity study in HepG2 cells.
The results obtained are shown in Table 6 expressed as the lethal dose 50 (LD50), or needed concentration to reduce to 50% the viability of basal conditions (without treatment), measured by the MTT reduction method.

[3] = 24 h incubation, MTT, concentration reducing viability to 50% of basal

SMILES	ORAC (Trolox eq.) [1]	SH-SY5Y LD50 [2, 3]	SH-SY5Y LD50 ([2]; human, 24 h)
CC(=O)NCCc1c[nH]c2ccc(OC(=O)/C=C/c3ccc(O)cc3)cc12 [Compound 7, 3-(2-acetamidoethyl)-1H-indol-5-yl (E)-3-(4-hydroxyphenyl)acrylate]	9.21 ± 0.81 Trolox eq.	>100 µM	–
CC(=O)NCCc1c[nH]c2ccc(OC(=O)/C=C/c3ccc(Br)cc3)cc12 [Compound 10, 3-(2-acetamidoethyl)-1H-indol-5-yl (E)-3-(4-bromophenyl)acrylate]	2.53 ± 0.18 Trolox eq.	60 µM	–
CC(=O)NCCc1c[nH]c2ccc(OC(=O)/C=C/c3ccc(C(F)(F)F)cc3)cc12 [Compound 15, 3-(2-acetamidoethyl)-1H-indol-5-yl (E)-3-(4-(trifluoromethyl)phenyl)acrylate]	3.97 ± 0.38 Trolox eq.	70 µM	–
COc1cccc(/C=C/C(=O)Oc2ccc3[nH]cc(CCNC(C)=O)c3c2)c1 [Compound 5, 3-(2-acetamidoethyl)-1H-indol-5-yl (E)-3-(3-methoxyphenyl)acrylate]	3.52 ± 0.27 Trolox eq.	83 µM	–
CC(=O)NCCc1c[nH]c2ccc(OC(=O)/C=C/c3ccc(C)cc3)cc12 [Compound 3, 3-(2-acetamidoethyl)-1H-indol-5-yl (E)-3-(4-methylphenyl)acrylate]	4.44 ± 0.51 Trolox eq.	80 µM	–
CC(=O)NCCc1c[nH]c2ccc(OC(=O)/C=C/c3cccc(C(F)(F)F)c3)cc12 [Compound 14, 3-(2-acetamidoethyl)-1H-indol-5-yl (E)-3-(3-(trifluoromethyl)phenyl)acrylate]	4.13 ± 0.39 Trolox eq.	>100 µM	–
CC(=O)NCCc1c[nH]c2ccc(OC(=O)/C=C/c3ccc([N+](=O)[O-])cc3)cc12 [Compound 16, 3-(2-acetamidoethyl)-1H-indol-5-yl (E)-3-(4-nitrophenyl)acrylate]	4.12 ± 0.49 Trolox eq.	>100 µM	–
CC(=O)NCCc1c[nH]c2ccc(OC(=O)/C=C/c3ccc(Cl)c(Cl)c3)cc12 [Compound 12, 3-(2-acetamidoethyl)-1H-indol-5-yl (E)-3-(3,4-dichlorophenyl)acrylate]	5.37 ± 0.38 Trolox eq.	51 µM	–
COc1cc(/C=C/C(=O)Oc2ccc3[nH]cc(CCNC(C)=O)c3c2)ccc1O [Compound 8, 3-(2-acetamidoethyl)-1H-indol-5-yl (E)-3-(4-hydroxy-3-methoxyphenyl)acrylate]	8.04 ± 0.66 Trolox eq.	>100 µM	–
COc1ccc2[nH]cc(CCNC(C)=O)c2c1 [Melatonin, reference compound]	–	–	>100 µM
CC(=O)NCCc1c[nH]c2ccc(OC(=O)/C=C/c3ccccc3C(F)(F)F)cc12 [Compound 13, 3-(2-acetamidoethyl)-1H-indol-5-yl (E)-3-(2-(trifluoromethyl)phenyl)acrylate]	3.33 ± 0.28 Trolox eq.	>100 µM	–
COc1ccccc1/C=C/C(=O)Oc1ccc2[nH]cc(CCNC(C)=O)c2c1 [Compound 4, 3-(2-acetamidoethyl)-1H-indol-5-yl (E)-3-(2-methoxyphenyl)acrylate]	3.02 ± 0.20 Trolox eq.	64 µM	–
C/C=C/C(=O)Oc1ccc2[nH]cc(CCNC(C)=O)c2c1 [Compound 1, 3-(2-acetamidoethyl)-1H-indol-5-yl (E)-2-butenoate]	8.64 ± 1.98 Trolox eq.	>100 µM	–
CC(=O)NCCc1c[nH]c2ccc(OC(=O)/C=C/c3ccc(Cl)cc3)cc12 [Compound 11, 3-(2-acetamidoethyl)-1H-indol-5-yl (E)-3-(4-chlorophenyl)acrylate]	2.91 ± 0.32 Trolox eq.	>100 µM	–
CC(=O)NCCc1c[nH]c2ccc(OC(=O)/C=C/c3ccccc3)cc12 [Compound 2, 3-(2-acetamidoethyl)-1H-indol-5-yl cinnamate]	4.30 ± 0.50 Trolox eq.	>100 µM	–
COc1ccc(/C=C/C(=O)Oc2ccc3[nH]cc(CCNC(C)=O)c3c2)cc1 [Compound 6, 3-(2-acetamidoethyl)-1H-indol-5-yl (E)-3-(4-methoxyphenyl)acrylate]	3.51 ± 0.27 Trolox eq.	60 µM	–
CC(=O)NCCc1c[nH]c2ccc(OC(=O)/C=C/c3ccc(F)cc3)cc12 [Compound 9, 3-(2-acetamidoethyl)-1H-indol-5-yl (E)-3-(4-fluorophenyl)acrylate]	3.44 ± 0.67 Trolox eq.	>100 µM	–
